Data as given in patent publication US6329363A, “Cephalosporin antibiotics” (Eli Lilly and Company, priority 1998, dated 2001).
≈ marks a conversion by molar mass, not a printed value.

Legend:
[1] = tested on: Mastitis in Cows; test: Efficacy in mastitis in lactating cows; type: in vivo; details: three trials, 450 mmoles/quarter/dose for two doses
Description: Compound 1 was administered to lactating cows in three trials using methods analogous to those used in the goat model described in Example 13. A total of 43 quarters were treated with Compound 1, and 36 quarters were treated with cephapirin (Cefa-Lak). Both compounds were administered at 450 mmoles/quarter/dose for two doses. Compound 1 effectively treated 27 out of 43 quarters for an overall cure rate of 63%, whereas cephapirin effectively treated 18 out of 36 quarters for an overall cure rate of only 50%.

[2] = tested on: Streptococcus agalactiae; test: MIC, in vitro activity vs. Streptococcus agalactiae; type: cell-based; parameters: unit not given here; details: Incubated at 37° C. overnight
Description: (§1) Table 2 summarizes the minimal inhibitory concentrations (MIC's) at which illustrative formula I compounds and cephalothin inhibit certain microorganisms associated with mastitis, such as Staphylococcus aureus 10092 (Newbould strain).
(§2) ^a Incubated at 37° C. overnight

[3] = tested on: Staphylococcus aureus 10092 (Newbould); test: Efficacy in induced Staphylococcus aureus mastitis model in lactating goats; type: in vivo; details: 8 halves per compound, 2 consecutive milkings 12 hours apart, approximately 25 mg/5 mL dose in peanut oil, from 36 hours post-challenge
From the text: Sixteen lactating goats were selected based on the absence of Staphylococcus aureus in pre-challenge milk cultures. Maintenance ration was provided to the animals throughout the study. The goats were milked twice each day using a portable goat milker.
Milk samples were collected during the morning milking. One day prior to challenge, milk culture samples were collected from each half of the test animals to determine if there was a pre-existing infection. Additionally, a sample was collected from each half for Somatic Cell Count (SCC) determination. A milk culture sample and a sample for SCC were collected from each half 24 hours post-challenge and on Days +4 to +6, +8, +11, +13, and +15.
Udder scoring was performed during each milking wing table:
General health observations and body temperature were recorded once a day following milking during the challenge and treatment periods.
Milk samples were submitted for analysis for SCC using an electronic somatic cell counting system.
Milk culture samples were assayed for bacterial culture by plating 1.0 mL and 0.1 mL of the milk sample directly onto duplicate blood agar plates. Additionally, dilutions 10^-1 of the milk sample were plated. Plates were incubated overnight at 37° C.
Staphylococcus aureus 10092 (Newbould) was used as the challenge strain. The challenge culture was grown in Tryptic Soy Broth (TSB) from a lyovial stock overnight (16 hours) at 37° C. TSB (100 mL) was inoculated with 1 mL of the overnight culture and incubated at 37° C. with shaking for 4 hours. The culture was centrifuged at 9000 rpm for 10 minutes at 10° C.; supernatant was removed and the pellet was resuspended in phosphate buffered saline (PBS). Optimum O.D. reading at 650 nm was approximately 0.035. A 10-fold dilution series was prepared with saline to determine the CFU/mL, plating 10^-5, 10^-6, and 10^-7 dilutions onto duplicate blood agar plates. The 10^-7 dilution (approximately 10 CFU/mL) was used for the challenge material, yielding a challenge of 50 CFU/half with a 5-mL infusion.
Sixteen goats were used for the trial. During a one day pre-challenge period, milk samples were collected and temperatures were taken during the morning milking. Milk/udder evaluations were documented during the morning and afternoon milkings.
Staphylococcus aureus 10092 was infused into both halves in each of the goats. The goats were challenged following the morning milking and milked in the afternoon on the day of challenge. The challenge inoculum volume was 5 mL/half containing approximately 50 CFU S. aureus.
For the 24 hr post-challenge period milk samples were collected during the morning milking, and milk/udder evaluations made during the morning and afternoon milking.
Treatment was started at 36 hours post-challenge. Milk samples were collected for culture and SCC 24 hours post-challenge, prior to the morning milking, and the treatment period started following the afternoon milking.
Eight halves (4 goats) each were treated for 2 consecutive milkings 12 hours apart, following milking. Each designated compound was formulated in peanut oil with […] of compound per 5 g of formulation to give approximately 25 mg/5 mL dose.
Following treatment, the goats were milked and observed for 15 days. Milk samples were collected on Days +4 to +6, +8, +11, +13, and +15 to determine if the infection had cleared.
Establishment of mastitis was determined by bacterial culturing, severity of udder scoring, somatic cell count results, and body temperature.
On Days +2 to +6, milk samples were collected for a calorimetric assay to determine whether the antibiotic was still present in the milk.

[4] = tested on: Streptococcus uberis 150 L; test: MIC, in vitro activity vs. Streptococcus uberis 150 L; type: cell-based; parameters: unit not given beside the values; details: Incubated at 37° C. overnight
Description: as §1, §2

[5] = tested on: S.aureus ATCC 29213; test: MIC, in vitro activity vs. S.aureus ATCC 29213; type: cell-based, Staphylococcus aureus; parameters: unit not given beside the values; details: Incubated at 37° C. overnight
Description: as §1, §2

[6] = tested on: Strepcococcus dysgalactiae; test: MIC, in vitro activity vs. Streptococcus dysgalactiae; type: cell-based; parameters: unit not given here; details: Incubated at 37° C. overnight
Description: as §1, §2

[7] = tested on: Streptococcus uberis 166 L; test: MIC, in vitro activity vs. Streptococcus uberis 166 L; type: cell-based; parameters: unit not given beside the values; details: Incubated at 37° C. overnight
Description: as §1, §2

[8] = tested on: S.aureus F1C; test: MIC, in vitro activity vs. S.aureus F1C; type: cell-based, Staphylococcus aureus; parameters: unit not given beside the values; details: Incubated at 37° C. overnight
Description: as §1, §2

[9] = tested on: Staphylococcus aureus 10092 (Newbould strain); test: MIC, in vitro activity vs. S.aureus 10092; type: cell-based; parameters: unit not given beside the values; details: Incubated at 37° C. overnight
Description: as §1, §2

[10] = tested on: S.aureus 174 C; test: MIC, in vitro activity vs. S.aureus 174 C; type: cell-based, Staphylococcus aureus; parameters: unit not given beside the values; details: Incubated at 37° C. overnight
Description: as §1, §2

[11] = tested on: pasteurella multocida 10,102 (bovine); test: MIC against Gram-negative organisms: pasteurella multocida 10,102 (bovine); type: cell-based; details: Incubated at 37° C. overnight; unit assumed
Description: (§3) The formula I compounds are also active against certain Gram-negative species.
as §2

[12] = tested on: Pasteurella haemolytica 114F (bovine); test: MIC against Gram-negative organisms: Pasteurella haemolytica 114F (bovine); type: cell-based; details: Incubated at 37° C. overnight; unit assumed
Description: as §3, §2

[13] = tested on: pasteurella multocida 1051 (swine); test: MIC against Gram-negative organisms: pasteurella multocida 1051 (swine); type: cell-based; details: Incubated at 37° C. overnight; unit assumed
Description: as §3, §2

[14] = tested on: Escherichia coli; test: MIC against Gram-negative organisms: Escherichia coli; type: cell-based; details: Incubated at 37° C. overnight; unit assumed
Description: as §3, §2

[15] = tested on: Pasteurella haemolytica 129R (bovine); test: MIC against Gram-negative organisms: Pasteurella haemolytica 129R (bovine); type: cell-based; details: Incubated at 37° C. overnight; unit assumed
Description: as §3, §2

[16] = tested on: pasteurella multocida 108E (bovine); test: MIC against Gram-negative organisms: pasteurella multocida 108E (bovine); type: cell-based; details: Incubated at 37° C. overnight; unit assumed
Description: as §3, §2

[17] = tested on: Pasteurella haemolytica 128K (bovine); test: MIC against Gram-negative organisms: Pasteurella haemolytica 128K (bovine); type: cell-based; details: Incubated at 37° C. overnight; unit assumed
Description: as §3, §2

[18] = tested on: Salmonella typhimurium; test: MIC against Gram-negative organisms: Salmonella typhimurium; type: cell-based; details: Incubated at 37° C. overnight; unit assumed
Description: as §3, §2

[19] = tested on: pasteurella multocida ATCC 12945; test: MIC against Gram-negative organisms: pasteurella multocida ATCC 12945; type: cell-based; details: Incubated at 37° C. overnight; unit assumed
Description: as §3, §2

| Compound | overall cure rate [1] | quarters effectively treated [1] | MIC vs. Streptococcus agalactiae [2] | % Bacteriologic Cures [3] | MIC vs. Streptococcus uberis 150 L [4] | MIC vs. S.aureus ATCC 29213 [5] | MIC vs. Strepcococcus dysgalactiae [6] | MIC vs. Streptococcus uberis 166 L [7] | MIC vs. S.aureus F1C [8] | MIC vs. S.aureus 10092 [9] | MIC vs. S.aureus 174 C [10] | MIC, pasteurella multocida 10,102 (bovine) [11] | MIC, Pasteurella haemolytica 114F (bovine) [12] | MIC, pasteurella multocida 1051 (swine) [13] | MIC, Escherichia coli [14] | MIC, Pasteurella haemolytica 129R (bovine) [15] | MIC, pasteurella multocida 108E (bovine) [16] | MIC, Pasteurella haemolytica 128K (bovine) [17] | MIC, Salmonella typhimurium [18] | MIC, pasteurella multocida ATCC 12945 [19] |
| --- | --- | --- | --- | --- | --- | --- | --- | --- | --- | --- | --- | --- | --- | --- | --- | --- | --- | --- | --- | --- |
| CC(=O)OCC1=C(C(=O)O)N2C(=O)[C@@H](NC(=O)CSc3ccncc3)[C@H]2SC1 [cephapirin, reference compound] | 50% | 18 out of 36 | – | – | – | – | – | – | – | – | – | – | – | – | – | – | – | – | – | – |
| Cc1nnc(SCC2=C(C(=O)O)N3C(=O)[C@@H](NC(=O)CSc4ccc(C(F)(F)F)cc4)[C@H]3SC2)s1 [Compound 2] | – | – | 0.125 | 83% | 0.125 | 0.25 | 0.0625 | 0.125 | 0.25 | 0.125 | 0.125 | – | – | – | – | – | – | – | – | – |
| Cc1nnc(SCC2=C(C(=O)O)N3C(=O)[C@@H](NC(=O)CSc4c(F)c(F)c(C(F)(F)F)c(F)c4F)[C@H]3SC2)s1 [Compound 5] | – | – | 0.0156 | 33% | 0.0156 | 0.0625 | 0.0625 | – | 0.125 | 0.0625 | 0.0625 | – | – | – | – | – | – | – | – | – |
| Cc1nnc(SCC2=C(C(=O)O)N3C(=O)[C@@H](NC(=O)COc4ccc(F)cc4)[C@H]3SC2)s1 [Compound 8] | – | – | 0.0312 | 100% | 0.0312 | 0.312 | 0.0312 | 0.0312 | 0.0312 | 0.0312 | 0.0312 | – | – | – | – | – | – | – | – | – |
| Cc1nnc(SCC2=C(C(=O)O)N3C(=O)[C@@H](NC(=O)COc4cc(F)cc(F)c4)[C@H]3SC2)s1 [Compound 10] | – | – | 0.0156 | 33% | 0.0312 | 0.0312 | 0.0312 | 0.0156 | 0.0312 | 0.0312 | 0.0312 | – | – | – | – | – | – | – | – | – |
| Cc1nnc(SCC2=C(C(=O)O)N3C(=O)[C@@H](NC(=O)CSc4ccc(S(=O)(=O)C(F)(F)F)cc4)[C@H]3SC2)s1 [Compound 4] | – | – | 0.0156 | 71% | – | 0.0625 | – | – | 0.125 | 0.0312 | 0.0312 | – | – | – | – | – | – | – | – | – |
| CC(=O)OCC1=C(C(=O)O)N2C(=O)[C@@H](NC(=O)Cc3cccs3)[C@H]2SC1 [Cephalothin, reference compound] | – | – | 0.125 | – | 0.125 | 0.25 | – | 0.0625 | 0.25 | – | 0.25 | 0.5 mg/L (≈ 1.26 µM) | 1 mg/L (≈ 2.52 µM) | 0.25 mg/L (≈ 0.631 µM) | 8 mg/L (≈ 20.2 µM) | 1 mg/L (≈ 2.52 µM) | 0.5 mg/L (≈ 1.26 µM) | 0.5 mg/L (≈ 1.26 µM) | 4 mg/L (≈ 10.1 µM) | 0.25 mg/L (≈ 0.631 µM) |
| Cc1nnc(SCC2=C(C(=O)O)N3C(=O)[C@@H](NC(=O)CSc4c(F)c(F)c(F)c(F)c4F)[C@H]3SC2)s1 [Compound 3] | – | – | 0.0156 | 50% | – | 0.125 | 0.0156 | 0.0156 | 0.125 | 0.625 | 0.0625 | – | – | – | – | – | – | – | – | – |
| Cc1nnc(SCC2=C(C(=O)O)N3C(=O)[C@@H](NC(=O)Cc4c(F)c(F)c(F)c(F)c4F)[C@H]3SC2)s1 [Compound 6] | – | – | 0.0625 | 60% | 0.0625 | 0.125 | 0.0312 | 0.0156 | 0.25 | 0.125 | 0.125 | – | – | – | – | – | – | – | – | – |
| Cc1nnc(SCC2=C(C(=O)O)N3C(=O)[C@@H](NC(=O)COc4c(F)c(F)c(F)c(F)c4F)[C@H]3SC2)s1 [Compound 1] | 63% | 27 out of 43 | 0.25 | 71% | 0.25 | 0.25 | 0.125 | 0.25 | 0.5 | 0.25 | 0.25 | 0.25 mg/L (≈ 0.44 µM) | 8 mg/L (≈ 14.1 µM) | 0.25 mg/L (≈ 0.44 µM) | ≤ 128 mg/L | 4 mg/L (≈ 7.04 µM) | 0.25 mg/L (≈ 0.44 µM) | 4 mg/L (≈ 7.04 µM) | ≤ 128 mg/L | 0.25 mg/L (≈ 0.44 µM) |
| Cc1nnc(SCC2=C(C(=O)O)N3C(=O)[C@@H](NC(=O)COc4c(F)cc(F)cc4F)[C@H]3SC2)s1 [Compound 9] | – | – | 0.0312 | 83% | 0.0625 | 0.125 | 0.125 | 0.0625 | 0.125 | 0.125 | 0.0625 | – | – | – | – | – | – | – | – | – |
| Cc1nnc(SCC2=C(C(=O)O)N3C(=O)[C@@H](NC(=O)COc4ccc(OC(F)(F)F)cc4)[C@H]3SC2)s1 [Compound 7] | – | – | 0.0312 | 100% | 0.0156 | 0.312 | ≤ 0.0078 | 0.0078 | 0.0625 | 0.312 | 0.312 | – | – | – | – | – | – | – | – | – |
